Measurements: patent US9328088B2, “Luminescent probes for biological labeling and imaging, and process for preparing the same” (CENTRE NATIONAL DE LA RECHERCHE SCIENTIFIQUE, priority 2011, dated 2016)
“And” between values parts separate entries of the source, which are not always exact repeats. Identical values can stand only once.

Assays:
Format in all cases: physicochemical
[1] = Emission properties: luminescence half-life τ and luminescence quantum yield φ in H2O and D2O; settings: for Emission τ (luminescence half-life): error estimated ±5%; for Emission φ (luminescence quantum yield): error estimated ±15%
From the text: The complexes according to the invention have varied applications, depending on the nature of the substituents of the pyridyl group of the ligand.
By way of example, all of the absorption and emission properties of the terbium complexes synthesized from ligands (I-1) to (I-4) in accordance with the invention are summarized in Table 1 below:
The parameters φ and τ represent, respectively, the luminescence quantum yields and the luminescence half-lives. They may be measured in water and in D2O.

[2] = Absorption properties of the terbium complexes; settings: 0.01M TRIS/HCl buffer at pH = 7.0
From the text: By way of example, all of the absorption and emission properties of the terbium complexes synthesized from ligands (I-1) to (I-4) in accordance with the invention are summarized in Table 1 below: […]

[3] = Stability of the terbium complexes in various buffers (luminescence half-life τ)
From the text: By way of example, the stability of the terbium complexes synthesized from ligands (I-1) to (I-4) in accordance with the invention in various buffers is given in Table 2 below. By way of comparison, Table 2 also gives the stability of a terbium complex TbL4 of the prior art corresponding to the following formula: […]

Structure (SMILES)	quantum yields [1]	Emission τ (luminescence half-life) ([1]; D2O)	Emission φ (luminescence quantum yield) ([1]; D2O)	Emission τ (luminescence half-life) ([1]; H2O)	Emission φ (luminescence quantum yield) ([1]; H2O)	Absorption λabs [2]	τ ([3]; H2O, estimated error ±5%)	τ ([3]; Phosphate 0.1M, pH = 7.0)	τ ([3]; Tris 50 mM-Serum 50%, pH = 7.0)	τ ([3]; Tris 0.1M, pH = 7.0)	τ ([3]; Tris 0.1M-EDTA 10 mM, pH = 7.0)	τ ([3]; Tris 0.1M-KF 400 mM, pH = 7.0)
CCOP(=O)([O-])CN(CC(=O)[O-])Cc1ccn(-c2cc(C#Cc3cc(OCCOC)c(C(=O)NCCCC(=O)[O-])cc3OCCOC)cc(-n3ccc(CN(CC(=O)[O-])CP(=O)([O-])OCC)n3)n2)n1.[Na+].[Na+].[Na+].[Na+].[Na+].[Tb+3] [Tb(I-5)]	virtually quantitative	0.0031 s	96%	0.0026 s	88%	283 nm and 328 nm	2.6 ms	2.6 ms	2.5 ms	2.6 ms	2.6 ms	2.5 ms
CCOP(=O)([O-])CN(CC(=O)[O-])Cc1ccn(-c2cc(C#Cc3cc(OCCOC)c(C#CCCCCC(=O)[O-])cc3OCCOC)cc(-n3ccc(CN(CC(=O)[O-])CP(=O)([O-])OCC)n3)n2)n1.[Na+].[Na+].[Na+].[Na+].[Na+].[Tb+3] [Tb(I-6)]		0.0032 s	35%	0.0026 s	26%	275 nm and 328 nm	2.6 ms	2.6 ms	2.3 ms	2.4 ms	2.5 ms	2.3 ms
CCOP(=O)([O-])CN(Cc1ccn(-c2cc(C#Cc3cc(OCCOC)c(C#CCCCCC(=O)[O-])cc3OCCOC)cc(-n3ccc(CN(CP(=O)([O-])OCC)CP(=O)([O-])OCC)n3)n2)n1)CP(=O)([O-])OCC.[Na+].[Na+].[Na+].[Na+].[Na+].[Tb+3] [Tb(I-8)]		0.0035 s	30%	0.0032 s	26%	272 nm and 327 nm	3.2 ms	3.2 ms	3.0 ms	3.1 ms	3.1 ms	3.0 ms
